According to patent publication US10517889B2, “Modulators of SMAD7 expression” (Ionis Pharmaceuticals, Inc., priority 2017, dated 2019):
Strand notation (5' to 3'): a small letter for the sugar, then the base; units joined by * are phosphorothioate-linked, units joined directly phosphodiester-linked; [ ] holds rarer units or linkages, { } end groups; capitals alone tell only the bases. e = 2'-O-(2-methoxyethyl) (MOE); [5mC] = 5-methylcytosine; d = 2'-deoxy (DNA)

These substances were tested on human SMAD7 mRNA (assay: Antisense inhibition of human SMAD7 mRNA expression in Hep3B cells by 5-10-5 MOE gapmers, single concentration, electroporation, RT-PCR (Example 1, Study 1 and 2)). Settings: Study 2, electroporation with 15,000 nM antisense oligonucleotide, 5-10-5 MOE gapmers targeting SEQ ID NO: 1 and 2.
Type: cell-based
In short: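 Readout is percent SMAD7 mRNA inhibition versus untreated cells, measured by qRT-PCR (RTS5062) and corrected for total RNA by RIBOGREEN. Oligonucleotide, 5,000 nM or 15,000 nM, was delivered by electroporation into Hep3B cells at 20,000 per well. RNA was collected about 24 h later.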

First: 771708 (antisense eG*eG*eA*eT*eA*dA*dA*dA*dG*dG*dA*dA*dA*dG*dG*eA*eG*eT*eT*eT) [compound 771708]
Second: 771710 (antisense eG*eG*eG*e[5mC]*eT*dG*d[5mC]*d[5mC]*d[5mC]*dA*dT*dT*d[5mC]*d[5mC]*dT*eA*eG*e[5mC]*eG*e[5mC]) [compound 771710]
The “% Inhibition” value of the first is lower: 0% for the first, 40% for the second.

Compared with “771716 (antisense eT*e[5mC]*eG*eA*eA*dT*d[5mC]*dA*d[5mC]*d[5mC]*d[5mC]*dT*dT*dT*d[5mC]*e[5mC]*eA*eT*eT*eA) [compound 771716]”, “771718 (antisense eA*eA*eA*eG*eT*dT*d[5mC]*dT*dA*dG*dT*dG*dT*d[5mC]*dT*eA*e[5mC]*eT*e[5mC]*e[5mC]) [compound 771718]” is higher in “% Inhibition” value: 24% for the first, 29% for the second.

First: 771719 (antisense eA*e[5mC]*eT*eG*eA*d[5mC]*dT*dT*dG*d[5mC]*dA*dG*dG*dT*dG*eA*e[5mC]*eT*eG*eG) [compound 771719]
Second: 771723 (antisense e[5mC]*e[5mC]*eA*eA*eG*dG*dT*dT*dA*d[5mC]*dA*dT*dA*d[5mC]*dA*eA*e[5mC]*e[5mC]*eT*eG) [compound 771723]
The “% Inhibition” value of the first is lower: 35% for the first, 44% for the second.

Going from “771724 (antisense e[5mC]*e[5mC]*eT*eT*e[5mC]*dT*d[5mC]*d[5mC]*d[5mC]*dA*dG*dA*dA*d[5mC]*d[5mC]*eT*eT*eG*eG*e[5mC]) [compound 771724]” to “771726 (antisense eA*eG*e[5mC]*e[5mC]*eA*dA*dA*dA*d[5mC]*d[5mC]*d[5mC]*dA*dG*dT*d[5mC]*eA*eA*eG*eT*eT) [compound 771726]”, the “% Inhibition” value falls from 27% to 19%.

In the case of “771727 (antisense eA*eA*e[5mC]*eA*eT*dG*dG*d[5mC]*d[5mC]*dT*dT*dT*d[5mC]*dT*dT*eT*eT*e[5mC]*eT*eA) [compound 771727]”, the “% Inhibition” value is reported as 0%.

Same assay, conditions: electroporation with 15,000 nM antisense oligonucleotide (Study 2), 5-10-5 MOE gapmers targeting SEQ ID NO: 1 and 2

First: 771712 (antisense eA*eT*eT*e[5mC]*eT*dT*dT*dT*dA*dG*d[5mC]*d[5mC]*d[5mC]*dA*dA*e[5mC]*eT*eG*eT*eT) [compound 771712]
Second: 771720 (antisense e[5mC]*eA*eG*eG*e[5mC]*dA*dG*dA*dG*d[5mC]*dT*dA*dT*dG*d[5mC]*eT*eT*e[5mC]*eA*eA) [compound 771720]
The “% Inhibition of SMAD7 mRNA” value of the first is lower: 27% for the first, 37% for the second.

Same assay, conditions: electroporation, 5,000 nM, approximately 24 hours, relative to untreated control cells, gapmers targeting SEQ ID NO: 1 and 2

“771723 (antisense e[5mC]*e[5mC]*eA*eA*eG*dG*dT*dT*dA*d[5mC]*dA*dT*dA*d[5mC]*dA*eA*e[5mC]*e[5mC]*eT*eG) [compound 771723]” was tested, and the “% inhibition of SMAD7 mRNA expression” value was 0%.

Same assay, conditions: electroporation, 15,000 nM antisense oligonucleotide (Study 2), 5-10-5 MOE gapmers targeting SEQ ID NO: 1 and 2

Compared with “771712 (antisense eA*eT*eT*e[5mC]*eT*dT*dT*dT*dA*dG*d[5mC]*d[5mC]*d[5mC]*dA*dA*e[5mC]*eT*eG*eT*eT) [compound 771712]”, “771713 (antisense eT*eG*e[5mC]*e[5mC]*eT*dA*d[5mC]*dA*d[5mC]*dA*d[5mC]*dA*dA*dA*dA*eA*eG*e[5mC]*e[5mC]*eA) [compound 771713]” is higher in “% inhibition of SMAD7 mRNA expression” value: 3% for the first, 15% for the second.

First: 771714 (antisense eT*e[5mC]*eT*eG*eG*dA*d[5mC]*dT*dA*dA*dA*dG*d[5mC]*dT*dT*e[5mC]*e[5mC]*eA*e[5mC]*eG) [compound 771714]
Second: 771720 (antisense e[5mC]*eA*eG*eG*e[5mC]*dA*dG*dA*dG*d[5mC]*dT*dA*dT*dG*d[5mC]*eT*eT*e[5mC]*eA*eA) [compound 771720]
The “% inhibition of SMAD7 mRNA expression” value of the first is higher: 44% for the first, 20% for the second.

First: 771721 (antisense e[5mC]*e[5mC]*e[5mC]*eA*eG*d[5mC]*dA*d[5mC]*dT*dG*dT*dG*dA*dT*dG*eT*e[5mC]*e[5mC]*eA*eG) [compound 771721]
Second: 771722 (antisense eA*eG*eA*eG*eG*dG*dA*dG*d[5mC]*dT*d[5mC]*d[5mC]*dA*dG*dG*eA*eA*eT*eT*eT) [compound 771722]
The “% inhibition of SMAD7 mRNA expression” value of the first is higher: 43% for the first, 10% for the second.

Same assay, conditions: electroporation, 15,000 nM, approximately 24 hours, relative to untreated control cells, gapmers targeting SEQ ID NO: 1 and 2

Going from “771709 (antisense eT*eG*eA*eA*e[5mC]*d[5mC]*d[5mC]*dT*d[5mC]*dA*d[5mC]*dA*dT*d[5mC]*dA*e[5mC]*eA*e[5mC]*eT*e[5mC]) [compound 771709]” to “771725 (antisense e[5mC]*eT*eT*eG*eA*dG*dG*dG*dA*dG*d[5mC]*dT*dG*dG*dT*eA*eG*eA*eG*eT) [compound 771725]”, the “% inhibition of SMAD7 mRNA expression” value falls from 38% to 8%.
